This note sets out measurements from patent publication US20220089646A1 (THE UNIVERSITY OF QUEENSLAND, priority 2019, published 2022).

The structures appear in SMILES notation. *1 amine or outer side, *2 acyl side, *3 side chain or, on linkers, in order; H or OH if unused. Where a SMILES comes first, the peptide text is derived from it. Bridges are numbered along the chain shown (N, C = ends). [ ]: non-standard residue; d: D form. NHCH2CMe2S = CC(C)(CN[*:1])S[*:2]

Series [1] has as its target T1, DOP (Homo sapiens, UniProt P41143). Put plainly: cAMP assay with naloxone in HEK-DOP cells. Type of series: cell-based. The note with it: naloxone 100 μM/well; for Mean cAMP response with naloxone: HEK-DOP, peptide at approximate IC80; for Naloxone reversal of cAMP inhibition through DOP: p<0.05. Here is the method: The preparation of buffers, cAMP standard curve, bead solutions were carried out identically to the agonist assay.
Forskolin had been optimised at 50 μM/well. Thus, the 25 mM stocks were used to prepare 300 μL of 0.3 mM Forskolin. The concentration of Forskolin prepared was 6 times the required concentration in the well to account for further dilution in the well. Forskolin solution was then made from this and used to dilute the drug solutions.
Approximate IC80 values were used for DP-7-11 and DP-7-12 to determine the ability of naloxone to reverse agonist inhibitory effect.
The desired concentration of naloxone was 100 μM/well. Thus, 100 μL of 600 μM naloxone was made up from 100 mM stock. This was 6 times the desired in-well concentration to account for further dilution in the well by Forskolin, peptide, cells and acceptor bead solutions.
Stimulation buffer was added to the 0.3 mM Forskolin solution to prepare the Forskolin only treatment solution as the positive control. Stimulation buffer used as the negative control.
The DP series compounds were assayed as follows: The different cAMP standard solutions (3 μL/well) were plated in duplicate. Naloxone solution was then plated (1 μL/well) for each treatment (DP-7-11, DP-7-12, Forskolin only and stimulation buffer) in triplicate. In the same way, stimulation buffer was plated (1 μL/well) for the same number of wells. This made up two sets of wells, antagonist and non-antagonist. Following this, the acceptor bead and cell mixture (3 μL/well) was added to the treatment wells. The plates were then covered and centrifuged at 280 g for 30 seconds before incubation on an orbital shaker for 30 minutes at room temperature. The acceptor bead mixture (3 μL/well) was then added to the cAMP standard curve wells, whilst the drug mixed with Forskolin solutions (3 μL/well) were added to the respective treatment wells in triplicate. Again, the plates were centrifuged at 280 g for 30 seconds, then covered and incubated on the orbital shaker for another 30 minutes. Finally, the donor bead mixture (10 μL/well) was added to each well. This was incubated at room temperature overnight on the orbital shaker.
The Ensight® Multimode Plate Reader was used to quantify the fluorescence units of each plate. Before reading, each plate was centrifuged at 280 g for 30 seconds. Using GraphPad Prism7® Software, cAMP concentrations were determined from the fluorescence data by fit spline/LOWESS analysis. The cAMP standard curve was used for interpolation at this point. The cAMP concentrations were then normalized to the highest cAMP concentration recorded and analyzed by one-way ANOVA for multiple comparisons. This analysis was corrected for multiple comparisons using Bonferroni. […]
Background: Changes in cAMP serve as a functional read-out for many G protein-coupled receptors.

The next series deals with T2, trypsin (Bos taurus, UniProt P00760).
T2 sequence (P00760 24-246): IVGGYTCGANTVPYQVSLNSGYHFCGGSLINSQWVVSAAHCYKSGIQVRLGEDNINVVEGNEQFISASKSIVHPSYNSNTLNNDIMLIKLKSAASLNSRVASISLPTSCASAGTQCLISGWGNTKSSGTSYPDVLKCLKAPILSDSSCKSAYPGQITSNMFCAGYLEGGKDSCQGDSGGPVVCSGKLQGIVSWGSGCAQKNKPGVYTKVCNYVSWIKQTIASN
Put plainly: Trypsin stability. It counts as in vitro ADME. Here is the method: Purified DP-7-11 (1 mg/mL) was dissolved in 0.1 M ammonium bicarbonate (NH4HCO3) buffer. To prepare a stock trypsin solution, 1 mg trypsin was dissolved in 50 mL of 0.1 M NH4HCO3 buffer. Equal volumes of the stock trypsin solution (62.5 μL) and DP-7-11 solution (62.5 μL) were incubated in 375 μL of 0.1M NH4HCO3 buffer in a 37° C. water bath. Aliquots of 100 μL were collected from this mixture at set time intervals of 0 min, up to 24 hours. Ice-cold acetonitrile containing 0.5% TFA was used to quench the reaction between DP-7-11 and trypsin at predetermined intervals, and just prior to HPLC or LC-MS analysis. The quenched samples were vortexed for 10 minutes followed by centrifugation at 12,000 rpm for a further 15 minutes. Supernatant was sampled and analysed using analytical RP-HPLC or LC-MS. Samples without trypsin acted as negative controls and were sampled at two intervals of 0 hour and 6 hours.
As used in this serum and trypsin stability discussion, the term ‘degraded completely’ relates to the relevant compound being completely absent when tested. In other words, the compound being tested is not observed when tested.
The serum and trypsin stability of DP-7-11 and DP-7-12 were tested (in some instances again) using LC-MS. The LC-MS utilized in this study was more sensitive than the LC-MS utilized in the above tests.

Series [2] has as its target T1, DOP. Put plainly: In vitro cAMP activity at DOP (Table 10). It counts as cell-based. The note with it: cAMP inhibition, four-parameter regression. The procedure: The CP series compounds were assayed as follows: The assay was performed using a 96 well ½ area plate. The different cAMP standard solutions (3 μL/well) were plated in duplicate. The different concentrations of drug (3 μL/well), and control solutions (3 μL/well) were plated in triplicate. Following this, the acceptor bead mixture (3 μL/well) was added to the respective sets—either cAMP standard curve or the treatment. This was covered and incubated on the orbital shaker for 60 minutes at 37° C. Then, the donor bead mixture (10 μL/well) was added to each well. This was incubated at room temperature overnight on the orbital shaker.
For DP-11-06 the assay was carried out in the same way as for the CP compounds except it was incubated for 30 mins at 37° C.
For the CP series compounds and DP-11-06, the Ensight® Multimode Plate Reader was used to quantify the fluorescence units of each plate. Before reading, each plate was centrifuged at 280 g for 30 seconds. Using GraphPad Prism7® Software, cAMP concentrations were determined by fit spline/LOWESS analysis. The cAMP standard curve was used for interpolation at this point. The cAMP concentrations were then normalized to the highest cAMP concentration recorded and analyzed by one-way ANOVA for multiple comparisons. The IC50 for each compound was then calculated using GraphPad Prism7® with non-linear regression analysis using four parameter curve fitting.
In this regard, a different regression analysis method was adopted on the above cAMP experiments. Particularly, a new non-linear regression (four-parameter) was adopted to better account for hill slope, thereby improving the regression fit.

T1 sequence (P41143 whole entry): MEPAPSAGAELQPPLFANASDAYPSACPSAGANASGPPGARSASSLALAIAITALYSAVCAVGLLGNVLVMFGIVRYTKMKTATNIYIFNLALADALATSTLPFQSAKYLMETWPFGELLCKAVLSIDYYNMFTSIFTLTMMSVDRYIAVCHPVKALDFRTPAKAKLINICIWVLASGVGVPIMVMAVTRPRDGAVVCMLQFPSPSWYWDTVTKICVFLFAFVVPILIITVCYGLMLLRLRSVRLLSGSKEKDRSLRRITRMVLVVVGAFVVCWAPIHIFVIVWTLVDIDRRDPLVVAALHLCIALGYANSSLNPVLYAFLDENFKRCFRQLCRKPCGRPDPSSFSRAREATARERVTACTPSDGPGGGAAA

In the case of `CC1(C)CNC(=O)C[C@@H](NC(=O)[C@@H](N)Cc2ccc(O)cc2)C(=O)NCC(=O)N[C@@H](Cc2ccccc2)C(=O)N[C@H](C(=O)N[C@@H](CCCNC(=N)N)C(=O)N[C@@H](CCCNC(=N)N)C(N)=O)CSS1` [DP-7-12, c(Tyr-D(Asp)-Gly-Phe-SSa-Arg-Arg)] (H-Y[dD]GFCRR-NH2; linker 2-5 via NHCH2CMe2S), on DOP [1], the “Mean cAMP response with naloxone” value was determined as 62.68% and the “Naloxone reversal of cAMP inhibition through DOP” value is recorded as “reversed by naloxone”. Also, at trypsin (37° C.), the “Trypsin: complete degradation within” value is recorded as “within 30 min”.
By EC50 is commonly meant the concentration giving half of the maximal effect. Read a high EC50 as weaker potency. The fraction remaining is what is left of the initial amount, in per cent. With `CC1(C)CNC(=O)C[C@H](C(=O)N[C@@H](CCCNC(=N)N)C(=O)N[C@@H](CCCNC(=N)N)C(N)=O)NC(=O)[C@H](Cc2ccccc2)NC(=O)CNC(=O)[C@@H](NC(=O)[C@@H](N)Cc2ccc(O)cc2)CSS1` [DP-7-11, c(Tyr-SSa-Gly-Phe-D(Asp)-Arg-Arg)], at DOP [1], the “Mean cAMP response with naloxone” value is on record as 77.18% and the “Naloxone reversal of cAMP inhibition through DOP” value is given as “reversed by naloxone”. In addition, the concentration for a half-maximal effect (EC50) at DOP [2] was above 10000 nM. On trypsin (at 30 min, more sensitive LC-MS), the “Incubation in trypsin: peptide remaining” value worked out at 25% remaining at. In addition, the share remaining at 0.5 h, 0.125 mg/mL at trypsin (trypsin solution, at 30 min, more sensitive LC-MS, read-out: Incubation in trypsin: peptide remaining) was around 25%.
